{"source": "patent US20200306173A1", "about": "“LICORICE EXTRACT SYNERGY WITH MENTHOL FOR BREATH FRESHENING IN A CONFECTIONARY PRODUCT” (WM. WRIGLEY JR. COMPANY, priority 2017, published 2020)", "tested_on": "salivary bacteria", "assay": "Hydrogen sulfide production by salivary bacteria in pooled saliva mixed with L-cysteine, headspace GC with sulfur detector", "assay_type": "cell-based, human", "conditions": "Example 2, FIG. 2; menthol alone at 4 mg/ml as compared to 2 mg/ml", "protocol": "• 1. About 10-20 ml of saliva was obtained from human subjects and mixed together prior to use. • 2. L-cysteine was dissolved in deionized (D.I.) water to produce 0.5% of cysteine solution. • 3. About 2.5 ml of pooled saliva was mixed with 2.5 ml of cysteine solution in a 20 ml headspace vial. • 4. The amount of hydrogen sulfide generated by salivary bacteria was analyzed by a gas chromatography (GC) equipped with a sulfur detector. Pooled saliva (50% dilution) and L-cysteine (0.25% in D.I. water) were used as the negative controls.\n• 1. For evaluation of the headspace concentration of volatile sulfur compounds (VSCs), a gas chromatograph (GC) equipped with a sulfur chemiluminescence detector (SCD) was used. • 2. Each run was completed within 10 minutes. • 3. The level of H2S was analyzed by the GC-SCD by direct injection of 0.25 ml of headspace volume with an automated sampler.\nLevels of H2S concentrations [μg/mL] were measured by gas […]. Licorice extract powder (Glycyrrhiza glabra) and menthol were each evaluated individually and then in combination. Saliva with cysteine served as a control reference. Licorice extract powder was sampled individually at 10 mg/ml and 20 mg/ml in a saliva-cysteine mixture. Menthol at 2 mg/ml was sampled individually. Three combinations of licorice and menthol were sampled, varying the amount of licorice extract."}
{"molecule": "CC1CCC(C(C)C)C(O)C1", "note": "(stereo not shown) [menthol]", "values": [{"measurement": "H2S production (peak gas chromatography area)", "value": "slight decrease of H2S production in later time points"}]}
